# Values quoted from earlier work, collected in patent US20050271754A1, “Composition for prevention or treatment of an alcohol hangover” (priority 2004, published 2005).
# Test system: acetaldehyde levels in the blood, liver and brain
# Settings: increases the oxidation cycle of ethanol
structure (smiles),measurement,value
N[C@@H](CS)C(=O)O [L-cysteine],"acetaldehyde levels in the blood, liver and brain",lowering acetaldehyde levels
